US8163793B2, “Proline derivatives” (Hoffman-La Roche Inc., priority 2009, dated 2012)

Legend:
Cathepsin S = Cathepsin S (UniProt P25774); assay: Cathepsin enzyme inhibition assay (fluorogenic peptide substrate Z-Val-Val-Arg-AMC), Cathepsin S; assay type: biochemical, human and mouse; conditions: enzyme 1 nM, substrate 20 μM, pH 6.5; read-out: CatS IC50
Outline: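 Compounds were combined with 1 nM human or mouse enzyme, and substrate then started the reaction. The buffer was potassium phosphate (100 mM, pH 6.5) containing EDTA-Na 5 mM, Triton X-100 0.001% and […] 5 mM.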

Cat L = Cat L (UniProt P07711); assay: Cathepsin enzyme inhibition assay (fluorogenic peptide substrate Z-Val-Val-Arg-AMC), Cathepsin L; assay type: biochemical, human and mouse; conditions: enzyme 1 nM, substrate 20 μM, pH 6.5; read-out: CatL IC50
Outline: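 Fluorogenic cleavage of Z-Val-Val-Arg-AMC (20 μM) by 1 nM Cat L was monitored at ex 360/em 465 nm for 20 min, the linear phase. The buffer was 100 mM potassium phosphate pH 6.5 with 5 mM EDTA and DTT. IC50 values were derived by standard methods, in μM.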

Structure (SMILES)	IC50 (Cathepsin S)	IC50 (Cat L)
CC1(C(=O)N2C[C@H](S(=O)(=O)c3ccc(Br)cc3C(F)(F)F)C[C@H]2C(=O)NC2(C#N)CC2)CC1 [Example 270, (2S,4R)-4-(4-Bromo-2-trifluoromethyl-benzenesulfonyl)-1-(1-methyl-cyclopropanecarbonyl)-pyrrolidine-2-carboxylic acid (1-cyano-cyclopropyl)-amide]	0.395 nM	≥ 25000 nM
CC1(C(=O)N2C[C@H](S(=O)(=O)c3ccc(C4CC4)cc3C(F)(F)F)C[C@H]2C(=O)NC2(C#N)CC2)CC1 [Example 271, (2S,4R)-4-(4-Cyclopropyl-2-trifluoromethyl-benzenesulfonyl)-1-(1-methyl-cyclopropanecarbonyl)-pyrrolidine-2-carboxylic acid (1-cyano-cyclopropyl)-amide]	1.75 nM	85600 nM
CN1CCN(c2ccc(S(=O)(=O)[C@@H]3C[C@@H](C(=O)NC4(C#N)CC4)N(C(=O)C4(C)CC4)C3)c(C(F)(F)F)c2)CC1 [Example 272, (2S,4R)-1-(1-Methyl-cyclopropanecarbonyl)-4-[4-(4-methyl-piperazin-1-yl)-2-trifluoromethyl-benzenesulfonyl]-pyrrolidine-2-carboxylic acid (1-cyano-cyclopropyl)-amide]	0.6 nM	17100 nM
N#CC1(NC(=O)[C@@H]2C[C@@H](S(=O)(=O)c3ccc(OCC(F)(F)F)cc3Cl)CN2C(=O)C2(c3ccc(Br)cc3)CC2)CC1 [Example 273, (2S,4R)-1-[1-(4-Bromo-phenyl)-cyclopropanecarbonyl]-4-[2-chloro-4-(2,2,2-trifluoro-ethoxy)-benzenesulfonyl]-pyrrolidine-2-carboxylic acid (1-cyano-cyclopropyl)-amide]	0.29 nM	8.06 nM
CC(=O)N[C@H]1CC[C@H](CC(=O)N2C[C@H](S(=O)(=O)c3ccc(OCC(F)(F)F)cc3Cl)C[C@H]2C(=O)NC2(C#N)CC2)CC1 [Example 274, (2S,4R)-1-[2-(4-Acetylamino-cyclohexyl)-acetyl]-4-[2-chloro-4-(2,2,2-trifluoro-ethoxy)-benzenesulfonyl]-pyrrolidine-2-carboxylic acid (1-cyano-cyclopropyl)-amide]	0.935 nM	9130 nM
N#CC1(NC(=O)[C@@H]2C[C@@H](S(=O)(=O)c3ccc(OCC(F)(F)F)cc3Cl)CN2C(=O)C(c2ccc(Cl)cc2)c2ccc(Cl)cc2)CC1 [Example 275, (2S,4R)-1-[2,2-Bis-(4-chloro-phenyl)-acetyl]-4-[2-chloro-4-(2,2,2-trifluoro-ethoxy)-benzenesulfonyl]-pyrrolidine-2-carboxylic acid (1-cyano-cyclopropyl)-amide]	0.38 nM	2680 nM
Cc1cccc(-n2nc(C)cc2N2C[C@H](S(=O)(=O)c3ccccc3C(F)(F)F)C[C@H]2C(=O)NC2(C#N)CC2)c1 [Example 276, (2S,4R)-1-(5-Methyl-2-m-tolyl-2H-pyrazol-3-yl)-4-(2-trifluoromethyl-benzenesulfonyl)-pyrrolidine-2-carboxylic acid (1-cyano-cyclopropyl)-amide]	0.392 nM	9430 nM
N#CC1(NC(=O)[C@H]2C[C@H](S(=O)(=O)c3ccc(OCC(F)(F)F)cc3Cl)CN2C(=O)C2(C(F)(F)F)CC2)CC1 [Example 280, (2R,4S)-4-[2-Chloro-4-(2,2,2-trifluoro-ethoxy)-benzenesulfonyl]-1-(1-trifluoromethyl-cyclopropanecarbonyl)-pyrrolidine-2-carboxylic acid (1-cyano-cyclopropyl)-amide]	24.5 nM	46500 nM
N#CC1(NC(=O)[C@@H]2C[C@@H](S(=O)(=O)c3ccccc3Cl)CN2C(=O)C2(c3ccc(OC(F)(F)F)cc3)CC2)CC1 [Example 281, (2S,4R)-4-(2-Chloro-benzenesulfonyl)-1-[1-(4-trifluoromethoxy-phenyl)-cyclopropanecarbonyl]-pyrrolidine-2-carboxylic acid (1-cyano-cyclopropyl)-amide]	0.28 nM	145 nM
CC(C)(C(=O)N1C[C@H](S(=O)(=O)c2ccccc2Cl)C[C@H]1C(=O)NC1(C#N)CC1)c1ccc(Cl)cc1 [Example 282, (2S,4R)-4-(2-Chloro-benzenesulfonyl)-1-[2-(4-chloro-phenyl)-2-methyl-propionyl]pyrrolidine-2-carboxylic acid (1-cyano-cyclopropyl)-amide]	0.24 nM	270 nM
N#CC1(NC(=O)[C@@H]2C[C@@H](S(=O)(=O)c3ccccc3Cl)CN2C(=O)C2(c3ccncc3)CC2)CC1 [Example 285, (2S,4R)-4-(2-Chloro-benzenesulfonyl)-1-(1-pyridin-4-yl-cyclopropanecarbonyl)-pyrrolidine-2-carboxylic acid (1-cyano-cyclopropyl)-amide]	0.227 nM	2600 nM
CC1(C(=O)N2C[C@H](S(=O)(=O)c3ccc(OCC(F)(F)F)cc3Cl)C[C@H]2C(=O)NC2(C#N)CC2)COC1 [Example 294, (2S,4R)-4-[2-Chloro-4-(2,2,2-trifluoro-ethoxy)-benzenesulfonyl]-1-(3-methyl-oxetane-3-carbonyl)-pyrrolidine-2-carboxylic acid (1-cyano-cyclopropyl)-amide]	0.353 nM	7840 nM

These reach a lower IC50 (Cathepsin S). Values come first.

IC50 (Cathepsin S)	IC50 (Cat L)	Structure (SMILES)
0.18 nM	1400 nM	CC(C)N1CCN(c2ccc(S(=O)(=O)[C@@H]3C[C@@H](C(=O)NC4(C#N)CC4)N(C(=O)C4(C(F)(F)F)CC4)C3)c(Cl)c2)CC1 [Example 293, (2S,4R)-4-[2-Chloro-4-(4-isopropyl-piperazin-1-yl)-benzenesulfonyl]-1-(1-trifluoromethyl-cyclopropanecarbonyl)-pyrrolidine-2-carboxylic acid (1-cyano-cyclopropyl)-amide]
0.175 nM	3170 nM	N#CC1(NC(=O)[C@@H]2C[C@@H](S(=O)(=O)c3ccc(OCC(F)(F)F)cc3Cl)CN2C(=O)C2(c3ccccc3)CCOCC2)CC1 [Example 287, (2S,4R)-4-[2-Chloro-4-(2,2,2-trifluoro-ethoxy)-benzenesulfonyl]-1-(4-phenyl-tetrahydro-pyran-4-carbonyl)-pyrrolidine-2-carboxylic acid (1-cyano-cyclopropyl)-amide]
0.157 nM	4130 nM	CN(C)c1ccc(S(=O)(=O)[C@@H]2C[C@@H](C(=O)NC3(C#N)CC3)N(C(=O)C3(C(F)(F)F)CC3)C2)c(Cl)c1 [Example 292, (2S,4R)-4-(2-Chloro-4-dimethylamino-benzenesulfonyl)-1-(1-trifluoromethyl-cyclopropanecarbonyl)-pyrrolidine-2-carboxylic acid (1-cyano-cyclopropyl)-amide]
0.14 nM	445 nM	N#CC1(NC(=O)[C@@H]2C[C@@H](S(=O)(=O)c3ccc(OCC(F)(F)F)cc3Cl)CN2C(=O)C2(c3ccc(C(N)=O)cc3)CC2)CC1 [Example 277, (2S,4R)-1-[1-(4-Carbamoyl-phenyl)-cyclopropanecarbonyl]-4-[2-chloro-4-(2,2,2-trifluoro-ethoxy)-benzenesulfonyl]-pyrrolidine-2-carboxylic acid (1-cyano-cyclopropyl)-amide]
0.13 nM	1600 nM	CN1CCN(c2ccc(S(=O)(=O)[C@@H]3C[C@@H](C(=O)NC4(C#N)CC4)N(C(=O)C4(C(F)(F)F)CC4)C3)c(Cl)c2)CC1 [Example 290, (2S,4R)-4-[2-Chloro-4-(4-methyl-piperazin-1-yl)-benzenesulfonyl]-1-(1-trifluoromethyl-cyclopropanecarbonyl)-pyrrolidine-2-carboxylic acid (1-cyano-cyclopropyl)-amide]
0.12 nM	24 nM	N#CC1(NC(=O)[C@@H]2C[C@@H](S(=O)(=O)c3ccccc3Cl)CN2C(=O)C2(c3ccc(Cl)cc3)CCC2)CC1 [Example 283, (2S,4R)-4-(2-Chloro-benzenesulfonyl)-1-[1-(4-chloro-phenyl)-cyclobutanecarbonyl]-pyrrolidine-2-carboxylic acid (1-cyano-cyclopropyl)-amide]
0.08 nM	3480 nM	Cn1cc(-c2ccc(C3(C(=O)N4C[C@H](S(=O)(=O)c5ccc(OCC(F)(F)F)cc5Cl)C[C@H]4C(=O)NC4(C#N)CC4)CC3)cc2)cn1 [Example 288, (2S,4R)-4-[2-Chloro-4-(2,2,2-trifluoro-ethoxy)-benzenesulfonyl]-1-{1-[4-(1-methyl-1H-pyrazol-4-yl)-phenyl]-cyclopropanecarbonyl}-pyrrolidine-2-carboxylic acid (1-cyano-cyclopropyl)-amide]
0.07 nM	463 nM	N#CC1(NC(=O)[C@@H]2C[C@@H](S(=O)(=O)c3ccccc3Cl)CN2C(=O)C2(c3ccc(Cl)c(Cl)c3)CC2)CC1 [Example 284, (2S,4R)-4-(2-Chloro-benzenesulfonyl)-1-[1-(3,4-dichloro-phenyl)-cyclopropanecarbonyl]-pyrrolidine-2-carboxylic acid (1-cyano-cyclopropyl)-amide]
0.02 nM	1310 nM	CC(C)(C(=O)N1C[C@H](S(=O)(=O)c2ccc(OCC(F)(F)F)cc2Cl)C[C@H]1C(=O)NC1(C#N)CC1)c1ccc(Cl)cc1 [Example 279, (2S,4R)-1-[2-(4-Chloro-phenyl)-2-methyl-propionyl]-4-[2-chloro-4-(2,2,2-trifluoro-ethoxy)-benzenesulfonyl]-pyrrolidine-2-carboxylic acid (1-cyano-cyclopropyl)-amide]
0.003 nM	2750 nM	N#CC1(NC(=O)[C@@H]2C[C@@H](S(=O)(=O)c3ccc(OCC(F)(F)F)cc3Cl)CN2C(=O)C2(c3ccc(Cl)cc3)CCC2)CC1 [Example 278, (2S,4R)-1-[1-(4-Chloro-phenyl)-cyclobutanecarbonyl]-4-[2-chloro-4-(2,2,2-trifluoro-ethoxy)-benzenesulfonyl]-pyrrolidine-2-carboxylic acid (1-cyano-cyclopropyl)-amide]
